From ChEMBL document CHEMBL3885861, “Open TG-GATES”

Organism: Rattus norvegicus
Test: Open TG-GATES - Regimen: Daily Repeat
Assay type: toxicity, organism-based, Sprague-Dawley
Set-up: regimen Daily Repeat, gender Male, age 6 weeks
Settings: in vivo, po, route gavage; for APTT / Bas / Eos / Fbg / Hb / Lym / MCH / MCHC / MCV / Mono / Neu / PT / Plat / RBC / Ret / WBC: tissue Blood; for KIDNEY_L / KIDNEY_R / KIDNEY_TOTAL: tissue Kidney; for LIVER: tissue Liver; for ALP / ALT / AST / BUN / CRE / Ca / Cl / DBIL / GLC / IP / K / LDH / Na / PL / RALB / TBIL / TC / TG / TP / gamma-GTP: tissue Plasma
[1] = 0 mg/kg, 72 h, dose level Control, time 3 day
[2] = 0 mg/kg, […], dose level Control, time 7 day
[3] = 0 mg/kg, […], dose level Control, time 14 day
[4] = 0 mg/kg, […], dose level Control, time 28 day
[5] = 2 mg/kg, 72 h, dose level Low, time 3 day
[6] = 2 mg/kg, […], dose level Low, time 7 day
[7] = 2 mg/kg, […], dose level Low, time 14 day
[8] = 2 mg/kg, […], dose level Low, time 28 day

## OCCN1CCN(CCCN2c3ccccc3Sc3ccc(C(F)(F)F)cc32)CC1 [FLUPHENAZINE]
[1]
  TERMINAL_BW: 233.9 g
  APTT: 16.9 s
  Bas: 0%
  Eos: 1%
  Fbg: 232.5 mg/dL
  Hb: 13.6 g/dL
  Lym: 77%
  MCH: 21.5 pg
  MCHC: 33.3%
  MCV: 64.4 fL
  Mono: 7.2%
  Neu: 15%
  PT: 12 s
  Plat: 126.3 x10_4/uL
  RBC: 632.2 x10_4/ul
  Ret: 6.2%
  WBC: 99.4 x10_2/uL
  KIDNEY_L: 1.1 g
  KIDNEY_R: 1.1 g
  KIDNEY_TOTAL: 2.2 g
  LIVER: 11.9 g
  ALP: 922 IU/L
  ALT: 35.2 IU/L
  AST: 60.2 IU/L
  BUN: 17.2 mg/dL
  CRE: 0.6 mg/dL
  Ca: 10.8 mg/dL
  Cl: 104.5 meq/L
  DBIL: 0.035 mg/dL
  GLC: 185 mg/dL
  IP: 8.5 mg/dL
  K: 4.9 meq/L
  LDH: 77.2 IU/L
  Na: 137.8 meq/L
  PL: 163 mg/dL
  RALB: 4 g/dL
  TBIL: 0.3 mg/dL
  TC: 86.2 mg/dL
  TG: 96.8 mg/dL
  TP: 5.8 g/dL
  gamma-GTP: 0.5 IU/L
[2]
  TERMINAL_BW: 262.6 g
  APTT: 16.3 s
  Bas: 0%
  Eos: 1%
  Fbg: 239.4 mg/dL
  Hb: 13.5 g/dL
  Lym: 80.6%
  MCH: 21.6 pg
  MCHC: 33.5%
  MCV: 64.4 fL
  Mono: 4%
  Neu: 15.2%
  PT: 11.9 s
  Plat: 114.7 x10_4/uL
  RBC: 627.6 x10_4/ul
  Ret: 5.2%
  WBC: 114 x10_2/uL
  KIDNEY_L: 1.2 g
  KIDNEY_R: 1.2 g
  KIDNEY_TOTAL: 2.3 g
  LIVER: 13.1 g
  ALP: 774.2 IU/L
  ALT: 30.4 IU/L
  AST: 61.6 IU/L
  BUN: 18.4 mg/dL
  CRE: 0.5 mg/dL
  Ca: 10.5 mg/dL
  Cl: 106.2 meq/L
  DBIL: 0.016 mg/dL
  GLC: 196.2 mg/dL
  IP: 8.4 mg/dL
  K: 4.6 meq/L
  LDH: 82.6 IU/L
  Na: 138.8 meq/L
  PL: 156 mg/dL
  RALB: 3.9 g/dL
  TBIL: 0.3 mg/dL
  TC: 79.4 mg/dL
  TG: 101 mg/dL
  TP: 5.9 g/dL
  gamma-GTP: 1.6 IU/L
[3]
  TERMINAL_BW: 300.9 g
  APTT: 17.2 s
  Bas: 0%
  Eos: 0.6%
  Fbg: 235.6 mg/dL
  Hb: 14.2 g/dL
  Lym: 82.8%
  MCH: 20.3 pg
  MCHC: 33.3%
  MCV: 61.1 fL
  Mono: 5.4%
  Neu: 11%
  PT: 11.7 s
  Plat: 107.2 x10_4/uL
  RBC: 699.2 x10_4/ul
  Ret: 3.7%
  WBC: 145.4 x10_2/uL
  KIDNEY_L: 1.2 g
  KIDNEY_R: 1.2 g
  KIDNEY_TOTAL: 2.4 g
  LIVER: 13.9 g
  ALP: 734.4 IU/L
  ALT: 30.6 IU/L
  AST: 55.8 IU/L
  BUN: 19.8 mg/dL
  CRE: 0.5 mg/dL
  Ca: 11 mg/dL
  Cl: 102.6 meq/L
  DBIL: 0 mg/dL
  GLC: 186.6 mg/dL
  IP: 8.5 mg/dL
  K: 4.5 meq/L
  LDH: 97.4 IU/L
  Na: 135.8 meq/L
  PL: 166 mg/dL
  RALB: 4.2 g/dL
  TBIL: 0.3 mg/dL
  TC: 77 mg/dL
  TG: 181.8 mg/dL
  TP: 6.2 g/dL
  gamma-GTP: 1.4 IU/L
[4]
  TERMINAL_BW: 402.6 g
  APTT: 17.2 s
  Bas: 0%
  Eos: 1%
  Fbg: 231 mg/dL
  Hb: 15.2 g/dL
  Lym: 84.8%
  MCH: 19.7 pg
  MCHC: 33.4%
  MCV: 58.8 fL
  Mono: 4.8%
  Neu: 9.8%
  PT: 11.8 s
  Plat: 92.5 x10_4/uL
  RBC: 774 x10_4/ul
  Ret: 2.7%
  WBC: 160.8 x10_2/uL
  KIDNEY_L: 1.5 g
  KIDNEY_R: 1.5 g
  KIDNEY_TOTAL: 2.9 g
  LIVER: 17.1 g
  ALP: 649.8 IU/L
  ALT: 32.2 IU/L
  AST: 57 IU/L
  BUN: 20.6 mg/dL
  CRE: 0.6 mg/dL
  Ca: 10.8 mg/dL
  Cl: 104.8 meq/L
  DBIL: 0.01 mg/dL
  GLC: 197.4 mg/dL
  IP: 7 mg/dL
  K: 4.5 meq/L
  LDH: 80 IU/L
  Na: 140.8 meq/L
  PL: 171.6 mg/dL
  RALB: 4.1 g/dL
  TBIL: 0.3 mg/dL
  TC: 74.6 mg/dL
  TG: 216 mg/dL
  TP: 6.4 g/dL
  gamma-GTP: 1 IU/L
[5]
  TERMINAL_BW: 226 g
  APTT: 16.5 s
  Bas: 0%
  Eos: 1%
  Fbg: 221.4 mg/dL
  Hb: 13.7 g/dL
  Lym: 80%
  MCH: 22.3 pg
  MCHC: 33.6%
  MCV: 66.3 fL
  Mono: 6.8%
  Neu: 12.6%
  PT: 12.2 s
  Plat: 101.3 x10_4/uL
  RBC: 613 x10_4/ul
  Ret: 5.3%
  WBC: 100.9 x10_2/uL
  KIDNEY_L: 1 g
  KIDNEY_R: 1 g
  KIDNEY_TOTAL: 2 g
  LIVER: 11.4 g
  ALP: 869.2 IU/L
  ALT: 36 IU/L
  AST: 69.6 IU/L
  BUN: 20.4 mg/dL
  CRE: 0.5 mg/dL
  Ca: 11 mg/dL
  Cl: 104.6 meq/L
  DBIL: 0.008 mg/dL
  GLC: 194.6 mg/dL
  IP: 8.5 mg/dL
  K: 4.8 meq/L
  LDH: 156.6 IU/L
  Na: 137.6 meq/L
  PL: 172.8 mg/dL
  RALB: 4.1 g/dL
  TBIL: 0.3 mg/dL
  TC: 85.2 mg/dL
  TG: 95 mg/dL
  TP: 5.9 g/dL
  gamma-GTP: 0.6 IU/L
[6]
  TERMINAL_BW: 257.2 g
  APTT: 16.8 s
  Bas: 0%
  Eos: 0.8%
  Fbg: 219.6 mg/dL
  Hb: 13.7 g/dL
  Lym: 83%
  MCH: 21 pg
  MCHC: 33.6%
  MCV: 62.5 fL
  Mono: 3%
  Neu: 13.2%
  PT: 12.1 s
  Plat: 103.7 x10_4/uL
  RBC: 652.6 x10_4/ul
  Ret: 4.5%
  WBC: 106.2 x10_2/uL
  KIDNEY_L: 1.1 g
  KIDNEY_R: 1.1 g
  KIDNEY_TOTAL: 2.2 g
  LIVER: 12.4 g
  ALP: 761.6 IU/L
  ALT: 30.4 IU/L
  AST: 60.4 IU/L
  BUN: 18.8 mg/dL
  CRE: 0.5 mg/dL
  Ca: 10.4 mg/dL
  Cl: 105.2 meq/L
  DBIL: 0.004 mg/dL
  GLC: 187.6 mg/dL
  IP: 7.9 mg/dL
  K: 4.7 meq/L
  LDH: 83.6 IU/L
  Na: 137.6 meq/L
  PL: 157.6 mg/dL
  RALB: 4 g/dL
  TBIL: 0.3 mg/dL
  TC: 74 mg/dL
  TG: 146.6 mg/dL
  TP: 5.9 g/dL
  gamma-GTP: 1.4 IU/L
[7]
  TERMINAL_BW: 299.4 g
  APTT: 16.8 s
  Bas: 0%
  Eos: 0.4%
  Fbg: 223.2 mg/dL
  Hb: 14.3 g/dL
  Lym: 83.2%
  MCH: 20.6 pg
  MCHC: 33.5%
  MCV: 61.4 fL
  Mono: 5.4%
  Neu: 11%
  PT: 11.9 s
  Plat: 108 x10_4/uL
  RBC: 696 x10_4/ul
  Ret: 3%
  WBC: 149.6 x10_2/uL
  KIDNEY_L: 1.2 g
  KIDNEY_R: 1.1 g
  KIDNEY_TOTAL: 2.3 g
  LIVER: 13.5 g
  ALP: 728.4 IU/L
  ALT: 28 IU/L
  AST: 56.6 IU/L
  BUN: 19.6 mg/dL
  CRE: 0.6 mg/dL
  Ca: 10.8 mg/dL
  Cl: 103.4 meq/L
  DBIL: 0 mg/dL
  GLC: 179.4 mg/dL
  IP: 7.7 mg/dL
  K: 4.4 meq/L
  LDH: 92.4 IU/L
  Na: 135.2 meq/L
  PL: 147.8 mg/dL
  RALB: 4.1 g/dL
  TBIL: 0.2 mg/dL
  TC: 66.8 mg/dL
  TG: 160.2 mg/dL
  TP: 6 g/dL
  gamma-GTP: 1 IU/L
[8]
  TERMINAL_BW: 362.5 g
  APTT: 17.2 s
  Bas: 0%
  Eos: 1%
  Fbg: 211.6 mg/dL
  Hb: 14.9 g/dL
  Lym: 84%
  MCH: 19.3 pg
  MCHC: 33.4%
  MCV: 57.7 fL
  Mono: 3.6%
  Neu: 11.8%
  PT: 12.1 s
  Plat: 95.6 x10_4/uL
  RBC: 775.2 x10_4/ul
  Ret: 2.4%
  WBC: 160.4 x10_2/uL
  KIDNEY_L: 1.3 g
  KIDNEY_R: 1.3 g
  KIDNEY_TOTAL: 2.6 g
  LIVER: 15.3 g
  ALP: 528.8 IU/L
  ALT: 29.6 IU/L
  AST: 59.6 IU/L
  BUN: 19.8 mg/dL
  CRE: 0.6 mg/dL
  Ca: 10.5 mg/dL
  Cl: 106.8 meq/L
  DBIL: 0.002 mg/dL
  GLC: 179.2 mg/dL
  IP: 6.6 mg/dL
  K: 4.4 meq/L
  LDH: 79.6 IU/L
  Na: 139.8 meq/L
  PL: 151.4 mg/dL
  RALB: 4.1 g/dL
  TBIL: 0.2 mg/dL
  TC: 73.2 mg/dL
  TG: 131 mg/dL
  TP: 6.3 g/dL
  gamma-GTP: 2 IU/L
